Source: article PMC5947850 (ACS infectious diseases, 2017)
Values joined by “and” are separate entries in the source; they are usually repeats but may differ in a detail not shown here. Equal values may be shown once. Read-outs that look alike come from different tables or passages of the source. Marks after values point to notes of the source that are not given here.

Columns and labels:
[1] = system: P. falciparum D6 (drug sensitive); experiment: 72 h SYBR Green I assay, P. falciparum D6; type: cell-based; settings: Plasmodium falciparum, D6, 72 h, read-out: In vitro activity vs. P. falciparum IC50, D6
[2] = system: P. falciparum Dd2 (chloroquine resistant); experiment: 72 h SYBR Green I assay, P. falciparum Dd2; type: cell-based; settings: Plasmodium falciparum, DD2, 72 h, read-out: In vitro activity vs. P. falciparum IC50, Dd2
[3] = system: P. falciparum Tm90-C2B (Chloroquine and Atovaquone resistant); experiment: 72 h SYBR Green I assay, P. falciparum Tm90-C2B; type: cell-based; settings: Plasmodium falciparum, TM90, 72 h, read-out: In vitro activity vs. P. falciparum IC50, C2B
[4] = system: blood-stage Plasmodium yoelii; experiment: Modified 4-day suppression test in mice; type: in vivo; settings: 4-day Peters Test
[5] = system: P. yoelii; experiment: Single dose cure of patent infection in mice; type: in vivo; settings: dose required to clear patent infection without recrudescence for 30 days post-infection, PEG-400
[6] = system: luciferase-transfected P. berghei sporozoites; type: in vivo, C57BL/6 albino mice; settings: 24 hours prior to sporozoite inoculation
[7] = system: HepG2 cells; experiment: Mitochondrial toxicity, CellTiter-Glo ATP in galactose medium; type: cell-based, human; settings: 72 hour incubation
[8] = target: T1, P. falciparum cytochrome bc1 (Plasmodium falciparum, UniProt Q02768); settings: read-out: P. falciparum cytochrome bc1 EC50, cited from earlier work
T1 sequence (Q02768 1-376): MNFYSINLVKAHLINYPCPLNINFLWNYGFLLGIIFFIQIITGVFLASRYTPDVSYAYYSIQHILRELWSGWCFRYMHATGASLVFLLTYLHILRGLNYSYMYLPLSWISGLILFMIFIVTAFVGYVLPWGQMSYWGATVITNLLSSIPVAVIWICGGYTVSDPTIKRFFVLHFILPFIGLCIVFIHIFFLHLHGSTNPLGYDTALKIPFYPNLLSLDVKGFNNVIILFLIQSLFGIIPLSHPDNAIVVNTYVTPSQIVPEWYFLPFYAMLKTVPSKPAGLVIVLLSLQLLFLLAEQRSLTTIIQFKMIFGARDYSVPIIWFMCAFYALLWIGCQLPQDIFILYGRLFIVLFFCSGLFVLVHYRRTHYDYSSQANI

[9] = target: T2, Human cytochrome bc1 (Homo sapiens, UniProt P00156); settings: read-out: Human cytochrome bc1 EC50; ref Nilsen, et al. 14; cited from earlier work
[10] = system: luciferase-transfected P. berghei sporozoites; settings: dosed 1 hour prior to sporozoite inoculation; cited from earlier work
[11] = target: T2, Human cytochrome bc1; experiment: Human cytochrome bc1 inhibition; type: biochemical; settings: read-out: Human cytochrome bc1 EC50
[12] = in vitro; type: in vitro ADME; settings: human, plasma

CCN(CC)CCCC(C)Nc1ccnc2cc(Cl)ccc12 (stereo not drawn) [CQ, chloroquine]
IC50 [1]: 0.01 µM
IC50 [2]: 0.14 µM
IC50 [3]: 0.098 µM
In vivo efficacy (oral) P. yoelii NRD (non-recrudescence dose) [4]: >64 mg/kg/day
In vivo efficacy (oral) P. yoelii Single Dose Cure [5]: >64 mg/kg/day

COc1cc2[nH]c(C)c(-c3ccc(Oc4ccc(OC(F)(F)F)cc4)cc3)c(=O)c2cc1Cl [ELQ-300]
In vivo efficacy (oral) P. yoelii NRD (non-recrudescence dose) [4]: 1 mg/kg/day and 1.0 mg/kg/day
In vivo efficacy (oral) P. yoelii Single Dose Cure [5]: >20 ^e mg/kg/day
Mice with positive IVIS signal at 24 hours ([6]; 0.1 mg/kg oral): 2/5
Mice with positive IVIS signal at 48 hours ([6]; 0.1 mg/kg oral): 5/5
Mice with no parasitemia ([6]; 1 mg/kg oral): 4/5
Mice with no parasitemia ([6]; 3 mg/kg oral): 5/5
Parasite burden in the liver (IVIS) ([6]; 3 and 1 mg/kg oral): no detectable parasite burden in the liver
Highest concentration without inhibition or alteration of ATP production [7]: ≥ 25 µM
EC50 ([8]; ref Nilsen, et al. 14): 0.00056 µM
EC50 [9]: > 10 µM
Fully protective dose against liver stage infection [10]: ≤ 0.03 mg/kg

COc1cc2nc(C)c(-c3ccc(Oc4ccc(OC(F)(F)F)cc4)cc3)c(OCOC(=O)OC(C)C)c2cc1Cl [ELQ-330]
In vivo efficacy (oral) P. yoelii Single Dose Cure [5]: 5.0 mg/kg/day

CCOC(=O)Oc1c(-c2ccc(Oc3ccc(OC(F)(F)F)cc3)cc2)c(C)nc2cc(OC)c(Cl)cc12 [ELQ-337]
EC50 [11]: > 10 µM
EC50 ([8]; ref Miley, et al. 26): 10 µM

CCOC(=O)OC(C)Oc1c(-c2ccc(Oc3ccc(OC(F)(F)F)cc3)cc2)c(C)nc2cc(OC)c(Cl)cc12 (stereo not drawn) [ELQ-387]
In vivo efficacy (oral) P. yoelii Single Dose Cure [5]: 5.0 mg/kg/day

CC(C)[N+](C)(CCOC(=O)C1c2ccccc2Oc2ccccc21)C(C)C [Propantheline bromide]
half-life at 1 μM [12]: 37.5 min
